Each block holds one compound with its values, some of them ahead of it.
How the values were obtained:
Rattus norvegicus = assay: (§1) Tmax in rat at 5 mg/kg, po; assay type: ADME, organism-based; settings: in vivo, BLD = below limit of detection
[1] = AUC (0 to infinity) in rat at 5 mg/kg, po; assay type: ADME, organism-based; design: dose 5 mg/kg, time infinity, route oral; settings: in vivo
[2] = as §1; assay type: ADME, organism-based; settings: in vivo
[3] = Cmax in rat at 5 mg/kg, po; assay type: ADME, organism-based; design: dose 5 mg/kg, route oral; settings: in vivo
[4] = Oral bioavailability in rat at 5 mg/kg; assay type: ADME, organism-based; settings: in vivo
[5] = Mean residence time in rat at 2 mg/kg, iv; assay type: ADME, organism-based; settings: in vivo
[6] = Plasma concentration in CB17 SCID mouse xenografted with human PC3 cells at 1 mg/kg, po measured at 6 hrs by LC/MS-MS analysis; assay type: ADME, organism-based, PC-3
[7] = Plasma concentration in CB17 SCID mouse xenografted with human PC3 cells at 10 mg/kg, po measured at 10 hrs by LC/MS-MS analysis; assay type: ADME, organism-based, PC-3
[8] = Plasma concentration in CB17 SCID mouse xenografted with human PC3 cells at 1 mg/kg, po measured at 1 hr by LC/MS-MS analysis; assay type: ADME, organism-based, PC-3
[9] = Plasma concentration in CB17 SCID mouse xenografted with human PC3 cells at 1 mg/kg, po measured at 3 hrs by LC/MS-MS analysis; assay type: ADME, organism-based, PC-3
[10] = Plasma concentration in CB17 SCID mouse xenografted with human PC3 cells at 10 mg/kg, po measured at 6 hrs by LC/MS-MS analysis; assay type: ADME, organism-based, PC-3
[11] = Oral bioavailability in dog at 0.3 mg/kg; assay type: ADME, organism-based, Canis lupus familiaris; settings: in vivo
[12] = Plasma concentration in CB17 SCID mouse xenografted with human PC3 cells at 1 mg/kg, po measured at 24 hrs by LC/MS-MS analysis; assay type: ADME, organism-based, PC-3
[13] = Plasma concentration in CB17 SCID mouse xenografted with human PC3 cells at 10 mg/kg, po measured at 24 hrs by LC/MS-MS analysis; assay type: ADME, organism-based, PC-3
[14] = Plasma concentration in CB17 SCID mouse xenografted with human PC3 cells at 10 mg/kg, po measured at 1 hr by LC/MS-MS analysis; assay type: ADME, organism-based, PC-3
[15] = Plasma concentration in CB17 SCID mouse xenografted with human PC3 cells at 1 mg/kg, po measured at 10 hrs by LC/MS-MS analysis; assay type: ADME, organism-based, PC-3
[16] = Oral bioavailability in mouse at 5 mg/kg; assay type: ADME, organism-based; settings: in vivo
[17] = Plasma concentration in CB17 SCID mouse xenografted with human PC3 cells at 10 mg/kg, po measured at 3 hrs by LC/MS-MS analysis; assay type: ADME, organism-based, PC-3

- Tmax (Rattus norvegicus): BLD
Compound: O=C1CN(CCC2CCOCC2)c2nc(-c3ccc(-c4nc[nH]n4)cc3)cnc2N1

- AUC(0-inf) [1]: 0.18 µM·h
- Tmax [2]: 0.9 h
- Cmax [3]: 20 nM
Compound: O=C1CN(CCC2CCOCC2)c2nc(-c3ccc(-c4nc[nH]n4)nc3)cnc2N1

- AUC(0-inf) [1]: 5.27 µM·h
- bioavailability [4]: 50%
- MRT [5]: 1.2 h
- Cmax [3]: 550 nM
Compound: CCN1CC(=O)Nc2ncc(-c3ccc(-c4nc[nH]n4)nc3C)nc21

- AUC(0-inf) [1]: 27.5 µM·h
- bioavailability [4]: 78%
- concentration at 6 h [6]: 130 nM
- MRT [5]: 4.3 h
- concentration at 10 h [7]: 1180 nM
- concentration at 1 h [8]: 530 nM
- concentration at 3 h [9]: 340 nM
- concentration at 6 h [10]: 2100 nM
- bioavailability [11]: 100%
- concentration at 24 h [12]: 5 nM
- concentration at 24 h [13]: 800 nM
- concentration at 1 h [14]: 6780 nM
- concentration at 10 h [15]: 120 nM
- bioavailability [16]: 53%
- concentration at 3 h [17]: 5690 nM
- Cmax [3]: 1670 nM
Compound: CCN1C(=O)CNc2ncc(-c3ccc(-c4nc[nH]n4)nc3C)nc21 [CC-115]

— ChEMBL document CHEMBL3585264 (J Med Chem, 2015)
